Assay results: PMC11513920, “Building Metabolically Stable and Potent Anti-HIV Thioether-Lipid Analogues of Tenofovir Exalidex: A thorough Pharmacological Analysis” (Journal of Medicinal Chemistry, 2024)
“And” between values parts separate entries of the source, which are not always exact repeats. Equal entries are not always repeated. Structures can show the parent of a compound that is named as a salt. Where two headings read alike, the source gives them in different places.

Tests used:
[1] = dogs; cited from earlier work
[2] = depending on food intake; cited from earlier work
[3] = Human liver microsome stability; conditions: HLM 1 mg/mL, 3 μM compound, NADPH, 37 °C, 120 min course
Method: Human liver microsomes (HLMs, 20 mg/mL) and CD-1 mouse liver microsomes (MLMs, 20 mg/mL) were purchased from Xenotech. NADPH was purchased from Sigma-Aldrich and prepared in 10 mM stock solutions of distilled H2O (Invitrogen UltraPure). […] Test compounds and positive controls were initially dissolved in MeOH to make 10 mM stock solutions. Sample solutions were then further diluted in 70/30 MeOH/H2O to 500 μM. Next, the reactions were prepared by mixing human or mouse liver microsomes (55 μL) with potassium phosphate buffer (100 mM, 928 μL) in 1.5 mL Eppendorf tubes. The test compounds (6.6 μL of 500 μM solution) were subsequently added to the suspensions, and the reaction mixtures were incubated at 37 °C for 5 min. Afterward, the liver microsome reactions were initiated with 110 μL of 10 mM NADPH and further incubated at 37 °C for the designated time course of the study. […] Each test compound was run in tandem with positive and negative control experiments for quality assurance. Positive control reactions were conducted at a final volume of 550 μL for a single run of each time point.
For both LM and plasma stability assays, each data point was analyzed in duplicate using in-between blank washes to avoid carry over and to equilibrate the column for the subsequent runs. Averages of these duplicate for individual compounds at each time point were then normalized to the data at 0 min, representing 100% test compound remaining or 0% metabolism. Half-lives (t1/2) were calculated by plotting ln of % test compound remaining versus time and performing linear regression to determine slope.
Metabolic Stability Assays
Liver Microsome Stability
Liver Microsome Stability Assay Setup Example
Quenching Mixture: 100 µL MeOH with ISTD (2 µM d5-7-ethoxycoumarin).
Final Volume After Quenching: 200 µL (100 µL from reaction mixture + 100 µL quencher
solution; ISTD final concentration of 1.0 µM).

in vitro [4] = conditions: human, HepaRG Cmax, 20 μM, HSA formulation 5:1, recorded after 3 h incubation
in vitro [5] = conditions: human, other cell line
[6] = plasma, p.o. 10 mg/kg; cited from earlier work
[7] = liver, p.o. 10 mg/kg; cited from earlier work
HepaRG cells [8] = experiment: HepaRG cellular uptake; conditions: for mean prodrug concentration in HepaRG cells: 20 µM; for HepaRG Cmax: 20 μM, HSA formulation 5:1, recorded after 3 h incubation
HepaRG cells [9] = experiment: HepaRG cellular metabolic stability; conditions: for HepaRG t1/2: after 3 h loading at 20 μM, 37 °C; for HepaRG Clint,u: calculated from cellular t1/2
[10] = Cellular cytotoxicity (cell viability, CellTiter 96 or resazurin); conditions: human, CC50, HEK293T cells, compounds formulated with HSA (5:1)
Method: Second, HIV IC50 and cellular CC50 were determined with a pseudoviral, whole (HEK293T) cell, nonreplicative HIV assay, using the HIV-1 subtype C strain MJ4 (refer to Experimental Methods). To account for the unique amphiphilic properties of TXL and the novel HTP-based prodrugs, all compounds were formulated in a human serum albumin (HSA) solution (5:1 drug:protein).
Assessment of cytotoxicity and antiviral activity of all final compounds in vitro was conducted according to previously reported procedures.[39] In summary, human embryonic kidney (HEK293T) cells maintained in high glucose (25 mM), Dulbecco’s modified Eagle’s medium (DMEM) supplemented with fetal bovine serum (10%), sodium pyruvate (1 mM), L-glutamine (2 mM), HEPES (25 mM), and gentamicin (50 μg/mL) were used for determinations. The cells were maintained in an incubator at 37 °C under 5% CO2 in a humidified atmosphere. For both cytotoxicity and antiviral screening, all compounds were evaluated in duplicate in at least two independent experiments. All final compounds were formulated with human serum albumin (HSA, 5:1 compound to HSA molar ratio) and subsequently diluted with complete DMEM to 200 μM. Fifty microliters of test compound serial dilutions (3-fold) were prepared in 96-well culture plates, after which 50 μL of HEK293T cells (2 × 10^4 cells/well) was added. […] Cytotoxicity was then assessed by quantifying cell viability using the CellTiter 96 Aqueous One Solution Cell Proliferation Assay (Promega, Madison, WI) or resazurin sodium salt (cat# R7017, Merck, Darmstadt, Germany).[61] […] Antiviral activity was then assessed using a single-cycle, nonreplicating, envelope deleted HIV pseudoviral in vitro assay.[62],[63] The assay relies on the introduction of the firefly luciferase gene into HEK293T cells through infection with HIV-like viral particles, containing Reverse Transcriptase (RT) and Integrase (IN) from the HIV-1 subtype C strain MJ4.[64] The expression of the luciferase in the cells is directly proportional to the level of infection by the HIV-like viral particles and can be used to assess the inhibition of HIV-1 RT and IN. To evaluate anti-HIV activity, 3-fold serial dilutions of all final compounds were prepared in 50 μL over the noncytotoxic concentration range (as determined from the cytotoxicity screens described above) in 96-well culture plates. HEK293T cells (2 × 10^4 cells/well) and HIV-like viral particles, standardized to produce a luminescence signal of 1 × 10^6 relative light units (RLUs) in the growth medium only control, were combined, and 50 μL was added to the wells containing serially diluted test compounds. […] The expression of luciferase was subsequently quantified by adding 100 μL of the Bright-Glo Luciferase Assay substrate (Promega, Madison, WI) to each well of the 96-well plates. After incubation at rt for 3 min, luminescence was quantified on the GloMax Explorer Multimode Microplate Reader (Promega, Madison, WI).

[11] = tested on: HIV-1 subtype C strain MJ4; set-up: method as in PMID 34459598; conditions: previously reported lead; cited from earlier work
HEK293T cells = tested on: HEK293T cells; set-up: method as in PMID 34459598; conditions: previously reported lead; cited from earlier work
HepaRG cellular uptake = conditions: human, HepaRG Cmax, 20 μM, HSA formulation 5:1, recorded after 3 h incubation
[12] = HepaRG cellular metabolic stability; conditions: human, other cell line
[13] = HepaRG Clint,u, calculated from cellular t1/2
[14] = HepaRG t1/2, after 3 h loading at 20 μM, 37 °C

| SMILES | Prodrug AUC0-24h [6] | Prodrug Cmax [6] | Prodrug Tmax [6] | Prodrug t1/2 [6] | k [6] | Prodrug AUC0-24h [7] | Prodrug Cmax [7] | mean prodrug concentration in HepaRG cells (HepaRG cells [8]; 0.5 h) | mean prodrug concentration in HepaRG cells (HepaRG cells [8]; 1 h) | mean prodrug concentration in HepaRG cells (HepaRG cells [8]; 2 h) | mean prodrug concentration in HepaRG cells (HepaRG cells [8]; 3 h) | mean prodrug concentration in HepaRG cells (HepaRG cells [8]; 5 h) | mean prodrug concentration in HepaRG cells (HepaRG cells [8]; 7 h) | HepaRG Cmax (HepaRG cells [8]) | HepaRG t1/2 (HepaRG cells [9]) | HepaRG Clint,u (HepaRG cells [9]) | also measured |
| --- | --- | --- | --- | --- | --- | --- | --- | --- | --- | --- | --- | --- | --- | --- | --- | --- | --- |
| CC(C)OC(=O)[C@H](C)N[P@](=O)(CO[C@H](C)Cn1cnc2c(N)ncnc21)Oc1ccccc1 [TAF, tenofovir alafenamide] | – | – | – | – | – | – | – | – | – | – | – | – | – | – | – | – | share of oral dose undergoing hepatic processing [1]: 65% |
| CC(C)OC(=O)OCOP(=O)(CO[C@H](C)Cn1cnc2c(N)ncnc21)OCOC(=O)OC(C)C [TDF, tenofovir disoproxil fumarate] | – | – | – | – | – | – | – | – | – | – | – | – | – | – | – | – | oral bioavailability [2]: 25–40% |
| CCCCCCCCCCCCCCCCOCCCOP(=O)(O)CO[C@H](C)Cn1cnc2c(N)ncnc21 [TXL, tenofovir exalidex] | 0.301 µg·h/mL | 0.125 µg/mL | 60 min | 175 min | 0.237 | 4970 ng·h/mL | 2.73 µg/mL | 258.83 ng/mL | 311.46 ng/mL | 378.66 ng/mL | 397.09 ng/mL | 468.27 ng/mL | 536.47 ng/mL | 0.3971 ± 0.0014 µg/mL | 44.3 ± 0.5 min | 28.5 μL/min/million cells | HLM t1/2 [3]: 42 min and 41.6 ± 9.0 ^d min; Cmax (in vitro [4]): 0.397 µg/mL; hepatocyte CLint (in vitro [5]; [13]): ~29 µL/min/1e6 cells; half-life (in vitro [5]; [14]): 43 to 44 min; Prodrug Tmax [7]: 60 min; CC50 at 48 h [10]: 97.6 ± 2.7 µM |
| C[C@H](Cn1cnc2c(N)ncnc21)OCP(=O)(O)OCCCOCCCCCCCCCCCCCCCC(F)(F)F.N [compound 1] | 1.28 µg·h/mL | 0.125 µg/mL | 120 min | 520 min | 0.080 | 109,000 h·ng/mL | 8.71 µg/mL | 141.43 ng/mL | 180.34 ng/mL | 319.83 ng/mL | 337.43 ng/mL | 321.56 ng/mL | 417.13 ng/mL | 0.3374 ± 0.001 µg/mL | 42.9 ± 0.5 min | 29.4 μL/min/million cells | IC50 [11]: 0.049 ± 0.01 µM; CC50 (HEK293T cells): > 100 µM; Cmax at 3 h, 20 μM (HepaRG cellular uptake): 0.337 µg/mL; hepatocyte CLint at 20 μM [12, 13]: ~29 µL/min/1e6 cells; half-life at 20 μM [12, 14]: 43 to 44 min |
